What was measured:
Format in all cases: cell-based
[1] = test system: HT-29 cells; test: HT-29 cell proliferation / viability (CellTiter Glo luminescence); settings: crizotinib administered alone, 0-20 nM, 72 hours
Method: To confirm the effect of co-administration in a colon cancer cell on which an anti-c-Met antibody has no effect when administered alone, HT-29 (ATCC, HTB-38) cells were used for assaying the effect of co-administration on cell proliferation.
In particular, 5000 cells of HT-29 cell were incubated in 96-well plate (medium: 10% FBS in RPMI 1640 (GIBCO), incubation temperature: 37° C.). 24 hours after, the incubated cells were treated with L3-1Y/IgG2 prepared in reference example or anti-c-Met antibody 1 (heavy chain: SEQ ID NO: 109; light chain: SEQ ID NO: 110) and beta-catenin inhibitor XAV-939 (Selleck chemical). In particular, 72 hours after the antibody treatment, 100 uL of CellTiter Glo solution (Promega, G7572) was added to each well and left at room temperature for 30 minutes. The number of the cells was counted through luminescence signal, and the luminescence signal was recorded using Envision 2104 Multi-label Reader (Perkin Elmer). In the experiment, L3-1Y/IgG2 was used at the amount of 0, 0.016, 0.08, 0.4, and 2 μg/ml, and XAV-939 was used at the fixed amount of 5 uM. […]
In particular, 5000 cells of HT-29 cell were incubated in 96-well plate (medium: 10% FBS in RPMI 1640 (GIBCO), incubation temperature: 37° C.). […] The number of the cells was counted through luminescence signal, and the luminescence signal was recorded using Envision 2104 Multi-label Reader (Perkin Elmer). […]

[2] = test system: Lovo cells; test: Lovo cell proliferation (CellTiter Glo luminescence); settings: Lovo (FIG. 5); crizotinib administered alone; 72 hours
Method: To confirm the effect of co-administration in a colon cancer cell on which a c-Met inhibitor has no effect when administered alone, Lovo (ATCC, CCL-229) cells were used for assaying the effect of co-administration on cell proliferation.
In particular, 5000 cells of Lovo cell were incubated in 96-well plate (medium: 10% FBS in RPMI 1640 (GIBCO), incubation temperature: 37° C.). 24 hours after, the incubated cells were treated with a small molecular compound inhibiting c-Met, crizotinib (Selleck chemical) and beta-catenin inhibitor XAV-939 (Selleck chemical). In particular, 72 hours after the antibody treatment, 100 uL of CellTiter Glo solution (Promega, G7572) was added to each well and left at room temperature for 30 minutes. The number of the cells was counted through luminescence signal, and the luminescence signal was recorded using Envision 2104 Multi-label Reader (Perkin Elmer). In the experiment, L3-1Y/IgG2 was used at the amount of 0, 0.016, 0.08, 0.4, and 2 μg/ml, and XAV-939 was used at the fixed amount of 5 uM.

[3] = test system: HCC1954 cells; test: HCC1954 cell proliferation with beta-catenin siRNA reverse transfection; settings: c-Met inhibitor treated alone (L3-1Y/IgG2 0-2 μg/ml; crizotinib 0-20 nM), 72 hours
Description: (§1) To confirm the effect of co-administration of c-Met inhibitor (anti-c-Met antibody L3-1Y/IgG2 or crizotinib) and beta-catenin siRNA in a cancer cell on which a c-Met inhibitor has no effect when administered alone, a breast cancer cell line HCC1954 (ATCC, CRL 2338) and a kidney cancer cell line Caki-1 (ATCC) were used for assaying the effect of the co-administration.
(§2) In particular, in 96-well plate, beta-catenin siRNA (Dharmacon, SMARTpool) was subjected to reverse transfection into 5000 cells/well of HCC1954 cell or Caki-1 cell and the cells were incubated (medium: 10% FBS in RPMI 1640 (GIBCO), incubation temperature: 37° C.). […] The number of the cells was counted through luminescence signal, and the luminescence signal was recorded using Envision 2104 Multi-label Reader (Perkin Elmer).

[4] = test system: Caki-1 cells; test: Caki-1 cell proliferation with beta-catenin siRNA reverse transfection; settings: c-Met inhibitor treated alone (L3-1Y/IgG2 0-2 μg/ml; crizotinib 0-20 nM), 72 hours
Description: as §1, §2

C[C@@H](Oc1cc(-c2cnn(C3CCNCC3)c2)cnc1N)c1c(Cl)ccc(F)c1Cl [crizotinib, 3-[(1R)-1-(2,6-dichloro-3-fluorophenyl)ethoxy]-5-(1-piperidin-4-ylpyrazol-4-yl)pyridin-2-amine, reference compound]
cell proliferation inhibition effect [1]: no cell proliferation inhibition effect is observed
cell proliferation inhibition effect [2]: no cell proliferation inhibition effect is observed
cell proliferation inhibition effect [3]: no cell proliferation inhibition effect is observed
cell proliferation inhibition effect [4]: no cell proliferation inhibition effect is observed

From patent US9457081B2, “Combination therapy using c-Met inhibitor and beta-catenin inhibitor” (Samsung Electronics Co., Ltd., priority 2013, dated 2016)
